Reference: patent publication US20020137929A1, “1 - (3-heterocyclylphenyl) isothiourea, -isourea, -guanidine and -amidine herbicidal agents” (Intellectual Property Department, BASF Aktiengesellschaft, priority 1998, published 2002)

Tests used:
AMBEL (Ragweed, Common) [1] = experiment: Postemergence herbicidal evaluation; assay type: in vivo, Ambrosia artemisifolia; conditions: postemergence
How it was run: (§1)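 Two-week seedlings sprayed postemergence at 40 psi; formulation: 1:1 acetone/water, 0.5% TWEEN 20; application ≈0.0156–0.500 kg/ha. Greenhouse grow-out, then 0–9 visual scoring at 4–5 weeks.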

ABUTH (Velvetleaf) = experiment: Postemergence herbicidal evaluation; assay type: in vivo, Abutilon theophrasti; conditions: postemergence
How it was run: as §1

[2] = test system: GLXMAW (Soybean, Williams); experiment: Postemergence herbicidal evaluation; assay type: in vivo, Glycine max, (L.) Merr. cv Williams; conditions: postemergence
How it was run: as §1

CASOB (Sicklepod) = experiment: Preemergence herbicidal evaluation; assay type: in vivo, Cassia obtusifolia; conditions: rated 4-5 weeks after treatment
How it was run: (§2)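 Steps: mix seeds into potting soil; plant atop ~1 inch soil; spray compound in aqueous acetone (~0.0156-0.500 kg/ha equivalent); maintain in greenhouse with watering; rate visually 0-9 versus control at 4-5 weeks.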

[3] = test system: CHEAL (Lambsquarters, Common); experiment: Postemergence herbicidal evaluation; assay type: in vivo, Chenopodium album; conditions: postemergence
How it was run: as §1

ORYSAT (Rice, Tebonnet) = experiment: Postemergence herbicidal evaluation; assay type: in vivo, Oryza sativa, (L.) Tebonnet; conditions: postemergence
How it was run: as §1

CYPSE (Flatsedge) = experiment: Preemergence weed control under flooded paddy conditions; assay type: in vivo, Cyperus serotinus; conditions: rated 3-4 weeks after treatment
How it was run: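 Greenhouse paddy assay. Acetone/water (50/50 v/v) solutions dosed into flood water, equivalent to about 0.0313 to 0.500 kg/ha active ingredient, over seeds planted 0.5 cm deep in silt loam. Score: 0-9 visual, based on stand, vigor, malformation, size and chlorosis, 3 to 4 weeks after treatment.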

AMBEL (Ragweed, Common) [4] = experiment: Preemergence herbicidal evaluation; assay type: in vivo, Ambrosia artemisifolia; conditions: rated 4-5 weeks after treatment
How it was run: as §2

ZEAMX (Corn, Field) = experiment: Postemergence herbicidal evaluation; assay type: in vivo, Zea mays; conditions: postemergence
How it was run: as §1

[5] = test system: CHEAL (Lambsquarters, Common); experiment: Preemergence herbicidal evaluation; assay type: in vivo, Chenopodium album; conditions: rated 4-5 weeks after treatment
How it was run: as §2

ECHCG (Barnyardgrass) = experiment: Postemergence herbicidal evaluation; assay type: in vivo, Echinochloa crus-galli; conditions: postemergence
How it was run: as §1

GALAP (Galium) = experiment: Preemergence herbicidal evaluation; assay type: in vivo, Galium aparine; conditions: rated 4-5 weeks after treatment
How it was run: as §2

Cn1c(C(F)(F)F)cc(=O)n(-c2cc(N=C3SCC(=O)N3CC(F)(F)F)c(Cl)cc2F)c1=O [Compound 163, 3-{4-Chloro-2-fluoro-5-{[4-oxo-3-(2,2,2-trifluoroethyl)-2-thiazolidinylidene]amino}phenyl}-1-methyl-6-(trifluoromethyl)-2,4(1H,3H)-pyrimidinedione]
herbicidal rating AMBEL (AMBEL (Ragweed, Common) [1]; rate 0.0156 kg/ha): 9.0
herbicidal rating AMBEL (AMBEL (Ragweed, Common) [1]; rate 0.0313 kg/ha): 9.0
herbicidal rating AMBEL (AMBEL (Ragweed, Common) [1]; rate 0.0625 kg/ha): 9.0
herbicidal rating ABUTH (ABUTH (Velvetleaf); rate 0.0156 kg/ha): 9.0
herbicidal rating ABUTH (ABUTH (Velvetleaf); rate 0.0313 kg/ha): 9.0
herbicidal rating ABUTH (ABUTH (Velvetleaf); rate 0.0625 kg/ha): 9.0
herbicidal rating GLXMAW ([2]; rate 0.0156 kg/ha): 6.0
herbicidal rating GLXMAW ([2]; rate 0.0313 kg/ha): 7.0
herbicidal rating GLXMAW ([2]; rate 0.0625 kg/ha): 8.0
Preemergence herbicidal rating CASOB (CASOB (Sicklepod); 0.0156 kg/ha): 0.0
Preemergence herbicidal rating CASOB (CASOB (Sicklepod); 0.0313 kg/ha): 0.0
Preemergence herbicidal rating CASOB (CASOB (Sicklepod); 0.0625 kg/ha): 0.0
Preemergence herbicidal rating CASOB (CASOB (Sicklepod); 0.1250 kg/ha): 0.0
Preemergence herbicidal rating CASOB (CASOB (Sicklepod); 0.2500 kg/ha): 5.0
herbicidal rating CHEAL ([3]; rate 0.0156 kg/ha): 9.0
herbicidal rating CHEAL ([3]; rate 0.0313 kg/ha): 9.0
herbicidal rating CHEAL ([3]; rate 0.0625 kg/ha): 9.0
herbicidal rating ORYSAT (ORYSAT (Rice, Tebonnet); rate 0.0156 kg/ha): 1.0
herbicidal rating ORYSAT (ORYSAT (Rice, Tebonnet); rate 0.0313 kg/ha): 1.5
herbicidal rating ORYSAT (ORYSAT (Rice, Tebonnet); rate 0.0625 kg/ha): 2.0
herbicidal effect rating, CYPSE (CYPSE (Flatsedge); 0.1250 kg/ha): 9.0
herbicidal effect rating, CYPSE (CYPSE (Flatsedge); 0.2500 kg/ha): 9.0
Preemergence herbicidal rating AMBEL (AMBEL (Ragweed, Common) [4]; 0.0156 kg/ha): 0.0
Preemergence herbicidal rating AMBEL (AMBEL (Ragweed, Common) [4]; 0.0313 kg/ha): 3.0
Preemergence herbicidal rating AMBEL (AMBEL (Ragweed, Common) [4]; 0.0625 kg/ha): 9.0
Preemergence herbicidal rating AMBEL (AMBEL (Ragweed, Common) [4]; 0.1250 kg/ha): 9.0
Preemergence herbicidal rating AMBEL (AMBEL (Ragweed, Common) [4]; 0.2500 kg/ha): 9.0
herbicidal rating ZEAMX (ZEAMX (Corn, Field); rate 0.0156 kg/ha): 5.0
herbicidal rating ZEAMX (ZEAMX (Corn, Field); rate 0.0313 kg/ha): 5.5
herbicidal rating ZEAMX (ZEAMX (Corn, Field); rate 0.0625 kg/ha): 5.5
Preemergence herbicidal rating CHEAL ([5]; 0.0156 kg/ha): 9.0
Preemergence herbicidal rating CHEAL ([5]; 0.0313 kg/ha): 9.0
Preemergence herbicidal rating CHEAL ([5]; 0.0625 kg/ha): 9.0
Preemergence herbicidal rating CHEAL ([5]; 0.1250 kg/ha): 9.0
Preemergence herbicidal rating CHEAL ([5]; 0.2500 kg/ha): 9.0
herbicidal rating ECHCG (ECHCG (Barnyardgrass); rate 0.0156 kg/ha): 0.0
herbicidal rating ECHCG (ECHCG (Barnyardgrass); rate 0.0313 kg/ha): 0.0
herbicidal rating ECHCG (ECHCG (Barnyardgrass); rate 0.0625 kg/ha): 1.0
Preemergence herbicidal rating GALAP (GALAP (Galium); 0.0156 kg/ha): 0.0
Preemergence herbicidal rating GALAP (GALAP (Galium); 0.0313 kg/ha): 0.0
Preemergence herbicidal rating GALAP (GALAP (Galium); 0.0625 kg/ha): 0.0
Preemergence herbicidal rating GALAP (GALAP (Galium); 0.1250 kg/ha): 0.0
Preemergence herbicidal rating GALAP (GALAP (Galium); 0.2500 kg/ha): 3.0
